Laboratory results as given in patent US20110105509A1 (Wyeth, LLC, priority 2009, published 2011).

Target: T1, CRTH2 (Homo sapiens, UniProt Q9Y5Y4)
T1 construct: expressed in transfected cells; host or cells: CHO cells
T1 sequence (Q9Y5Y4 1-395): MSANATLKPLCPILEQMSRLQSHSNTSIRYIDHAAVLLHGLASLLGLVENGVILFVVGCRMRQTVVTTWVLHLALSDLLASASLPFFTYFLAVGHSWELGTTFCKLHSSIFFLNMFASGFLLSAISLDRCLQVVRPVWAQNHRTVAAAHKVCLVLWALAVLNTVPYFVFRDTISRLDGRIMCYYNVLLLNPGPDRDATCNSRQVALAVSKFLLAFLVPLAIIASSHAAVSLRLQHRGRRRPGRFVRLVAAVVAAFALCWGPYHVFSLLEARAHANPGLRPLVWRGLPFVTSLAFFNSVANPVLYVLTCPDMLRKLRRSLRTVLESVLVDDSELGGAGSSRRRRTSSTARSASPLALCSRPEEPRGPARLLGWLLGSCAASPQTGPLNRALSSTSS
Test: FRET based competitive immunoassay (cAMP) in CRTH2 expressing CHO cells
Format: cell-based
Settings: CRTH2 expressing CHO cells incubated with forskolin and PGD2; Eu3+ cryptate-labeled anti-cAMP and d2-labeled cAMP
Procedure: FRET Assay: To evaluate potency compounds were tested in a FRET based competitive immunoassay in which CRTH2 expressing CHO cells were incubated in the presence of forskolin and PGD2 along with Eu3+ cryptate-labeled anti-cAMP and d2-labeled cAMP.

## Cc1c(Cc2ccc(=O)n(Cc3cccc(C(C)(C)O)c3)n2)c2cc(F)ccc2n1CC(=O)O [Example 240, 2-(5-fluoro-3-((1-(3-(2-hydroxypropan-2-yl)benzyl)-6-oxo-1,6-dihydropyridazin-3-yl)methyl)-2-methyl-1H-indol-1-yl)acetic acid]
  IC50: 4 nM

## Cc1c(-c2ccc(=O)n(Cc3ccccc3)n2)c2cc(Br)ccc2n1CC(=O)O [Example 219, 2-(3-(1-benzyl-6-oxo-1,6-dihydropyridazin-3-yl)-5-bromo-2-methyl-1H-indol-1-yl)-acetic acid]
  IC50: 30 nM

## Cc1c(-c2nn(Cc3ccc(Cl)cc3Cl)c(=O)c3ccccc23)c2cc(F)ccc2n1CC(=O)O [Example 7, 2-(3-(3-(2,4-dichlorobenzyl)-4-oxo-3,4-dihydrophthalazin-1-yl)-5-fluoro-2-methyl-1H-indol-1-yl)acetic acid]
  IC50: 4 nM

## Cc1c(-c2nn(Cc3ccc(Cl)cc3)c(=O)c3ccccc23)c2cc(F)ccc2n1CC(=O)O [Example 4, 2-(3-(3-(4-Chlorobenzyl)-4-oxo-3,4-dihydropthalazin-1-yl)-5-fluoro-2-methyl-1H-indol-1-yl)acetic acid]
  IC50: 9 nM

## Cc1c(-c2ccc(=O)n(CCCC(F)(F)F)n2)c2cc(F)ccc2n1CC(=O)O [Example 163, 2-(5-fluoro-2-methyl-3-(6-oxo-1-(4,4,4-trifluorobutyl)-1,6-dihydropyridazin-3-yl)-1H-indol-1-yl)acetic acid]
  IC50: 865 nM

## Cc1c(-c2ccc(=O)n(CCCC(F)(F)F)c2)c2cc(F)ccc2n1CC(=O)NS(=O)(=O)C1CC1 [Example 317, N-(cyclopropylsulfonyl)-2-(5-fluoro-2-methyl-3-(6-oxo-1-(4,4,4-trifluorobutyl)-1,6-dihydropyridin-3-yl)-1H-indol-1-yl)acetamide]
  IC50: > 1000 nM

## Cc1c(Cc2ccc(=O)n(Cc3cccnc3)n2)c2cc(F)ccc2n1CC(=O)O [Example 195, 2-(5-fluoro-2-methyl-3-((6-oxo-1-(pyridin-3-ylmethyl)-1,6-dihydropyridazin-3-yl)methyl)-1H-indol-1-yl)acetic acid]
  IC50: 12 nM

## Cc1c(Cc2ccc(=O)n(Cc3ccccc3)n2)c2ccccc2n1CC(=O)O [Example 77, 2-(3-((1-Benzyl-6-oxo-1,6-dihydropyridazin-3-yl)methyl)-2-methyl-1H-indol-1-yl)acetic acid]
  IC50: 32 nM

## Cc1c(-c2nn(C(C)C)c(=O)c3ccccc23)c2ccccc2n1CC(=O)O [Example 326, [3-(3-isopropyl-4-oxo-3,4-dihydrophthalazin-1-yl)-2-methyl-1H-indol-1-yl]acetic acid]
  IC50: 61 nM

## Cc1c(Cc2ccc(=O)n(CC(C)(C)O)n2)c2cc(F)ccc2n1CC(=O)O [Example 197, (5-fluoro-3-{[1-(2-hydroxy-2-methylpropyl)-6-oxo-1,6-dihydropyridazin-3-yl]-methyl}-2-methyl-1H-indol-1-yl)acetic acid]
  IC50: 270 nM

## Cc1c(-c2ccc(=O)n(CC(C)(C)Oc3ccccc3)n2)c2cc(F)ccc2n1CC(=O)O [Example 230, 2-(5-fluoro-2-methyl-3-(1-(2-methyl-2-phenoxypropyl)-6-oxo-1,6-dihydropyridazin-3-yl)-1H-indol-1-yl)acetic acid]
  IC50: 232 nM

## Cc1c(Cc2ccc(=O)n(CC(F)(F)F)c2)c2cc(F)ccc2n1CC(=O)O [Example 46]
  IC50: 55 nM

## Cc1c(Cc2ccc(=O)n(Cc3ccc(C(F)(F)F)cc3)n2)c2cc(Cl)ccc2n1CC(=O)O [Example 81, 2-(5-Chloro-2-methyl-3-((6-oxo-1-(4-(trifluoromethyl)benzyl)-1,6-dihydropyridazin-3-yl)-methyl)-1H-indol-1-yl)acetic acid]
  IC50: 23 nM

## Cc1c(-c2ccc(=O)n(C3CCCC3)c2)c2ccccc2n1CC(=O)O [Example 288, 2-(3-(1-cyclopentyl-6-oxo-1,6-dihydropyridin-3-yl)-2-methyl-1H-indol-1-yl)-acetic acid]
  IC50: 117 nM

## Cc1c(Cc2ccc(=O)n(Cc3ccc(F)cc3F)n2)c2cc(F)cc(F)c2n1CC(=O)O [Example 242, 2-(3-((1-(2,4-difluorobenzyl)-6-oxo-1,6-dihydropyridazin-3-yl)methyl)-5,7-difluoro-2-methyl-1H-indol-1-yl)acetic acid]
  IC50: 28 nM

## Cc1c(-c2nn(Cc3cccc(F)c3F)c(=O)c3ccccc23)c2cc(F)ccc2n1CC(=O)O [Example 112, 2-(3-(3-(2,3-difluorobenzyl)-4-oxo-3,4-dihydrophthalazin-1-yl)-5-fluoro-2-methyl-1H-indol-1-yl)acetic acid]
  IC50: 19 nM

## CCn1nc(-c2c(C)n(CC(=O)O)c3ccccc23)ccc1=O [Example 182, 2-(3-(1-ethyl-6-oxo-1,6-dihydropyridazin-3-yl)-2-methyl-1H-indol-1-yl)-acetic acid]
  IC50: 1720 nM

## Cc1c(-c2ccc(=O)n(Cc3ccccn3)c2)c2cc(F)ccc2n1CC(=O)O [Example 309, 2-(5-fluoro-2-methyl-3-(6-oxo-1-(pyridin-2-ylmethyl)-1,6-dihydropyridin-3-yl)-1H-indol-1-yl)acetic acid]
  IC50: 105 nM

## Cc1c(-c2nn(Cc3ccc(C(F)(F)F)cc3)c(=O)c3ccccc23)c2ccccc2n1CC(=O)O [Example 171, 2-(2-methyl-3-(4-oxo-3-(4-(trifluoromethyl)benzyl)-3,4-dihydrophthalazin-1-yl)-1H-indol-1-yl)acetic acid]
  IC50: 296 nM

## Cc1c(Cc2ccc(=O)n(Cc3ccccc3)n2)c2cc(Cl)ccc2n1CC(=O)O [Example 80, 2-(3-((1-Benzyl-6-oxo-1,6-dihydropyridazin-3-yl)methyl)-5-chloro-2-methyl-1H-indol-1-yl)acetic acid]
  IC50: 16 nM

## Cc1c(-c2ccc(=O)n(Cc3cc(F)c(F)cc3F)n2)c2cc(F)ccc2n1CC(=O)O [Example 70, 2-(5-fluoro-2-methyl-3-(6-oxo-1-(2,4,5-trifluorobenzyl)-1,6-dihydro-pyridazin-3-yl)-1H-indol-1-yl)acetic acid]
  IC50: 16 nM

## Cc1c(-c2nn(Cc3ccc(Cl)c(F)c3)c(=O)c3ccccc23)c2cc(Cl)ccc2n1CC(=O)O [Example 2, 2-(5-Chloro-3-(3-(4-chloro-3-fluorobenzyl)-4-oxo-3,4-dihydrophthalazin-1-yl)-2-methyl-1H-indol-1-yl)acetic acid]
  IC50: 18 nM

## Cc1c(-c2ccc(=O)n(Cc3ccccc3)n2)c2cc(F)ccc2n1CC(=O)O [Example 324, 2-(3-(1-benzyl-6-oxo-1,6-dihydropyridazin-3-yl)-5-fluoro-2-methyl-1H-indol-1-yl)-acetic acid]
  IC50: 6 nM

## Cc1c(-c2cn(Cc3ccc(F)cc3F)c(=O)c3c2CCCC3)c2cc(F)ccc2n1CC(=O)O [Example 94, 2-(3-(2-(2,4-difluorobenzyl)-1-oxo-1,2,5,6,7,8-hexahydroisoquinolin-4-yl)-5-fluoro-2-methyl-1H-indol-1-yl)acetic acid]
  IC50: 119 nM

## Cc1c(-c2ccc(=O)n(CC3CC3)n2)c2ccccc2n1CC(=O)O [Example 184, 2-(3-(1-(cyclopropylmethyl)-6-oxo-1,6-dihydropyridazin-3-yl)-2-methyl-1H-indol-1-yl)acetic acid]
  IC50: 62 nM

## Cc1c(-c2nn(Cc3cc(F)ccc3F)c(=O)c3ccccc23)c2cc(F)ccc2n1CC(=O)O [Example 62, 2-(3-(3-(2,5-difluorobenzyl)-4-oxo-3,4-dihydrophthalazin-1-yl)-5-fluoro-2-methyl-1H-indol-1-yl)acetic acid]
  IC50: 9 nM

## Cc1c(Cc2ccc(=O)n(Cc3cccc(F)c3)n2)c2cc(F)ccc2n1CC(=O)O [Example 341, (3-{[1-(3-fluorobenzyl)-6-oxo-1,6-dihydropyridazin-3-yl]methyl}-5-fluoro-2-methyl-1H-indol-1-yl)acetic acid]
  IC50: 33 nM

## Cc1c(-c2ccc(=O)n(Cc3ccc4ccccc4n3)n2)c2cc(Cl)ccc2n1CC(=O)O [Example 144, 2-(5-chloro-2-methyl-3-(6-oxo-1-(quinolin-2-ylmethyl)-1,6-dihydro-pyridazin-3-yl)-1H-indol-1-yl)acetic acid]
  IC50: 11 nM

## Cc1c(-c2nn(Cc3ccncc3F)c(=O)c3ccccc23)c2cc(F)ccc2n1CC(=O)O [Example 138, 2-(5-fluoro-3-(3-((3-fluoropyridin-4-yl)methyl)-4-oxo-3,4-dihydrophthalazin-1-yl)-2-methyl-1H-indol-1-yl)acetic acid]
  IC50: 5 nM

## Cc1c(-c2ccc(=O)n(Cc3ccc(C(F)(F)F)cc3)n2)c2cc(Cl)ccc2n1CC(=O)O [Example 213, 2-(5-chloro-2-methyl-3-(6-oxo-1-(4-(trifluoromethyl)benzyl)-1,6-dihydropyridazin-3-yl)-1H-indol-1-yl)acetic acid]
  IC50: 19 nM

## Cc1c(-c2nn(Cc3nc4cc(F)ccc4s3)c(=O)c3ccccc23)c2cc(F)ccc2n1CC(=O)O [Example 114, 2-(5-fluoro-3-(3-((5-fluorobenzo[d]thiazol-2-yl)methyl)-4-oxo-3,4-dihydro-phthalazin-1-yl)-2-methyl-1H-indol-1-yl)acetic acid]
  IC50: 13 nM

## Cc1c(-c2nn(CC(C)(C)C)c(=O)c3ccccc23)c2cc(F)ccc2n1CC(=O)O [Example 126, 2-(5-fluoro-2-methyl-3-(3-neopentyl-4-oxo-3,4-dihydrophthalazin-1-yl)-1H-indol-1-yl)acetic acid]
  IC50: 8 nM

## Cc1c(-c2ccc(=O)n(Cc3ccc(S(C)(=O)=O)cc3)n2)c2cc(Cl)ccc2n1CC(=O)O [Example 66, 2-(5-chloro-2-methyl-3-(1-(4-(methylsulfonyl)benzyl)-6-oxo-1,6-dihydropyridazin-3-yl)-1H-indol-1-yl)acetic acid]
  IC50: 143 nM
